{"source": "ChEMBL document CHEMBL1201862", "about": "“PubChem BioAssay data set” (2004)", "key": {"[1]": {"target": "T1, DNA repair and recombination protein RAD54-like (Homo sapiens, UniProt Q92698)", "T1 sequence (Q92698 whole entry)": "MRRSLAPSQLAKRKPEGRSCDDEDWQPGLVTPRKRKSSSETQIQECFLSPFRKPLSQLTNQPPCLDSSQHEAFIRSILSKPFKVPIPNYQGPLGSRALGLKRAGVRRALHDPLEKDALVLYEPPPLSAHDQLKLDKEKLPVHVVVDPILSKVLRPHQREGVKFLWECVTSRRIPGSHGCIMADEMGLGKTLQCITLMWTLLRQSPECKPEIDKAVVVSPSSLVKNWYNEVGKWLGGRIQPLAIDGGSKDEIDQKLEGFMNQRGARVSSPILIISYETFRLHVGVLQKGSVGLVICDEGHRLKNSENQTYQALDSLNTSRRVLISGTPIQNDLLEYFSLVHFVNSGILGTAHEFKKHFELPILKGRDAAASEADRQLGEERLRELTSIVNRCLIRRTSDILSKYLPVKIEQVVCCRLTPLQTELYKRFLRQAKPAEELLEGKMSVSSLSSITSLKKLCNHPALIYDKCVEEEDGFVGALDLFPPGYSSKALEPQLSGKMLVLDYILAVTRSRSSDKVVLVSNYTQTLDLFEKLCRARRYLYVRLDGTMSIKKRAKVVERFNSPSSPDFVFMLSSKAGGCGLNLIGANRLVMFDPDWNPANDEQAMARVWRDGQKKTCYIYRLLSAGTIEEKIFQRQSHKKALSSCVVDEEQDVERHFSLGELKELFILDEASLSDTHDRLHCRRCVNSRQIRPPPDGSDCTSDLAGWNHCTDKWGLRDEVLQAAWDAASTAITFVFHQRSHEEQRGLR", "experiment": "inhibitors of human RAD54 branch migration, confirmation, biochemical, fluorescence, cherry-picked samples, dose series (AID 651657)", "format": "functional"}, "[2]": {"target": "Dual specificity protein phosphatase 3 (Homo sapiens, UniProt P51452)", "sequence (P51452 whole entry)": "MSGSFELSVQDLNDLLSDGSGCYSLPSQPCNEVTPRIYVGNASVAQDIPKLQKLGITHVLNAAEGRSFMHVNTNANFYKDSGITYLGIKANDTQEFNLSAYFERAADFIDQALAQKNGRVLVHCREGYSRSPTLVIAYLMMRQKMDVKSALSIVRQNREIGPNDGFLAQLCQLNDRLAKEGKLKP", "experiment": "VHR phosphatase inhibition, dose response, selectivity assay for STEP inhibitor project, biochemical (AID 602374)", "format": "functional", "details": "read-out: IC50_Mean"}, "[3]": {"target": "T2, Tyrosine-protein phosphatase non-receptor type 11 (Homo sapiens, UniProt Q06124)", "T2 sequence (Q06124 whole entry)": "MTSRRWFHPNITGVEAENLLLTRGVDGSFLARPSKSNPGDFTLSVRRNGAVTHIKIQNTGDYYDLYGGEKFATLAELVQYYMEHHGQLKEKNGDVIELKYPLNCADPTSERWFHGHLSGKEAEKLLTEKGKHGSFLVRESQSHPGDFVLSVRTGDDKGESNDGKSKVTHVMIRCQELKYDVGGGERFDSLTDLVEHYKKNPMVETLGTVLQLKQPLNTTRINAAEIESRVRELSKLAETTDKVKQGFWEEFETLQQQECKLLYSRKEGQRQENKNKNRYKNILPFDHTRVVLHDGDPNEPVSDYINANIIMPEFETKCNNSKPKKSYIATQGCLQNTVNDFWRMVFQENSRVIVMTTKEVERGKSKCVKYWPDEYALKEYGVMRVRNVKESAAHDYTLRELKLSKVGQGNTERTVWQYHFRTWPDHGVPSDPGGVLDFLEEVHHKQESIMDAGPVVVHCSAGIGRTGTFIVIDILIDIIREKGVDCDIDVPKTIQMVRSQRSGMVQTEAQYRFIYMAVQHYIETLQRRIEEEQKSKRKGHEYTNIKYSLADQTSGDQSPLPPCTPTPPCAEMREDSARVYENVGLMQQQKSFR", "experiment": "SHP2 phosphatase inhibition, dose response, selectivity assay for STEP inhibitor project, biochemical (AID 602367)", "format": "functional", "details": "read-out: IC50_Mean"}, "[4]": {"target": "T3, Tyrosine-protein phosphatase non-receptor type 5 (Homo sapiens, UniProt P54829)", "T3 sequence (P54829 whole entry)": "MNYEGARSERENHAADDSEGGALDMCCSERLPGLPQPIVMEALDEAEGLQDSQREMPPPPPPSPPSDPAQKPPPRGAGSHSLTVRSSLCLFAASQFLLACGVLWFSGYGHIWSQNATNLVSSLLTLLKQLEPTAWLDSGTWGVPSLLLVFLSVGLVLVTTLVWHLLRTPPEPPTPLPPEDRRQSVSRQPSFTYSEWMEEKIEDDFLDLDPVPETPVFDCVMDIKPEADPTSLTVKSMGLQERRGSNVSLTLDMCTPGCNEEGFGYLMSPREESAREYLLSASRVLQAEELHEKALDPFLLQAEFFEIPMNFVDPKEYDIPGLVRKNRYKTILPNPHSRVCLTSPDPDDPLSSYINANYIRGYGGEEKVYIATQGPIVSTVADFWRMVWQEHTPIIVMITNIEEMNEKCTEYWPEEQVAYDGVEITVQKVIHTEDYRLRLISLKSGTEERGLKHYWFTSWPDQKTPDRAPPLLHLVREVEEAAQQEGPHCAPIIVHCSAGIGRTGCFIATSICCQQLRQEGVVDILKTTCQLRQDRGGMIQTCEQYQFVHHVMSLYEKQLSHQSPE", "experiment": "STEP phosphatase inhibitors, confirmation, biochemical, fluorescence intensity, uHTS hits (AID 602372)", "format": "functional", "details": "read-out: IC50_Mean"}, "[5]": {"target": "T4, DNA repair protein RAD52 homolog (Homo sapiens, UniProt P43351)", "T4 sequence (P43351 whole entry)": "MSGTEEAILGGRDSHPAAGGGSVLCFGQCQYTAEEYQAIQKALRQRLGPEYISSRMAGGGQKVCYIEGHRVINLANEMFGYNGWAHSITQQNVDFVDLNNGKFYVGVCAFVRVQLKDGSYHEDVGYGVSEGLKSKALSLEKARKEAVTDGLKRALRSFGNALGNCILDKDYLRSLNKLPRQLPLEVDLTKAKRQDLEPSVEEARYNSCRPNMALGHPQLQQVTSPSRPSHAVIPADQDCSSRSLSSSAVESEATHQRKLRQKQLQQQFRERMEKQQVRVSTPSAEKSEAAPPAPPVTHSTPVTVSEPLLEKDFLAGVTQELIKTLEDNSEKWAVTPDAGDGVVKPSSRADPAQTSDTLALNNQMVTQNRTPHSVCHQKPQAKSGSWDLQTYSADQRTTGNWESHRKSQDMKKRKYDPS", "format": "functional, biochemical"}, "[6]": {"target": "T5, Ubiquitin-conjugating enzyme E2 N (Homo sapiens, UniProt P61088)", "T5 sequence (P61088 whole entry)": "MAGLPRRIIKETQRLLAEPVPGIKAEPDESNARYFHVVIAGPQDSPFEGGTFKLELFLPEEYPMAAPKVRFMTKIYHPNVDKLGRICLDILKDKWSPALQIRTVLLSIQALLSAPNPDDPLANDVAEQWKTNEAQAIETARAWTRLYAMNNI", "format": "functional"}, "[7]": {"target": "T6, Sentrin-specific protease 8 (Homo sapiens, UniProt Q96LD8)", "T6 sequence (Q96LD8 whole entry)": "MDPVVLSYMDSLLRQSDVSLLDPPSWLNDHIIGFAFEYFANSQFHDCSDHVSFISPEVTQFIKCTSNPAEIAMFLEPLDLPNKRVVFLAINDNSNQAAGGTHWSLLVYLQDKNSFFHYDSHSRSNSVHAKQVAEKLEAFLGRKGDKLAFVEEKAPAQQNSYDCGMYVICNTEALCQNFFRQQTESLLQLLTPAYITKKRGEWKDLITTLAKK", "format": "functional"}, "[8]": {"experiment": "AlphaScreen signal interference compounds, dose response, artefact control for ARNT-TACC3 interaction inhibitor project, biochemical, luminescence, cherry-pick (AID 651705);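 also: AlphaScreen bead proximity signal that flags compounds interfering with the detection technology; potency reflects signal decrease which marks the compound as an assay artifact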", "format": "functional"}, "[9]": {"target": "T6, Sentrin-specific protease 8", "format": "functional", "remark": "listed apart in the source"}, "[10]": {"target": "Glucose-6-phosphate 1-dehydrogenase (Homo sapiens, UniProt P11413)", "sequence (P11413 whole entry)": "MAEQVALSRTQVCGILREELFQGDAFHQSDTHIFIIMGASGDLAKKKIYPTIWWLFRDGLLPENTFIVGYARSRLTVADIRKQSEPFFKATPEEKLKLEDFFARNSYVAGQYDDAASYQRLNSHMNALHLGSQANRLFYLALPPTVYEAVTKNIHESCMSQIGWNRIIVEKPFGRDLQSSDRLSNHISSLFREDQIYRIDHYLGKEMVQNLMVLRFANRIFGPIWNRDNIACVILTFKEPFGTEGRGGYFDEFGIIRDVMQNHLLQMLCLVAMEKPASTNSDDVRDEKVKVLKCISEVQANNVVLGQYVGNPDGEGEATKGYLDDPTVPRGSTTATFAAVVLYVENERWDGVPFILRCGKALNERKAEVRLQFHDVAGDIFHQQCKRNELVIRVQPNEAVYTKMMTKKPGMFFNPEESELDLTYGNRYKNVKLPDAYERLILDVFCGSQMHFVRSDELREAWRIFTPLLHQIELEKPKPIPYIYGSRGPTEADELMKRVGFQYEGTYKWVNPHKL", "experiment": "human G6PD enzyme inhibitors, dose response, selectivity assay for P. falciparum G6PD inhibitor project, biochemical, fluorescence (AID 504792)", "format": "functional"}, "Genome polyprotein": {"target": "Genome polyprotein (dengue virus type 2, UniProt P29990)", "sequence (P29990 2492-3391 limits assumed)": "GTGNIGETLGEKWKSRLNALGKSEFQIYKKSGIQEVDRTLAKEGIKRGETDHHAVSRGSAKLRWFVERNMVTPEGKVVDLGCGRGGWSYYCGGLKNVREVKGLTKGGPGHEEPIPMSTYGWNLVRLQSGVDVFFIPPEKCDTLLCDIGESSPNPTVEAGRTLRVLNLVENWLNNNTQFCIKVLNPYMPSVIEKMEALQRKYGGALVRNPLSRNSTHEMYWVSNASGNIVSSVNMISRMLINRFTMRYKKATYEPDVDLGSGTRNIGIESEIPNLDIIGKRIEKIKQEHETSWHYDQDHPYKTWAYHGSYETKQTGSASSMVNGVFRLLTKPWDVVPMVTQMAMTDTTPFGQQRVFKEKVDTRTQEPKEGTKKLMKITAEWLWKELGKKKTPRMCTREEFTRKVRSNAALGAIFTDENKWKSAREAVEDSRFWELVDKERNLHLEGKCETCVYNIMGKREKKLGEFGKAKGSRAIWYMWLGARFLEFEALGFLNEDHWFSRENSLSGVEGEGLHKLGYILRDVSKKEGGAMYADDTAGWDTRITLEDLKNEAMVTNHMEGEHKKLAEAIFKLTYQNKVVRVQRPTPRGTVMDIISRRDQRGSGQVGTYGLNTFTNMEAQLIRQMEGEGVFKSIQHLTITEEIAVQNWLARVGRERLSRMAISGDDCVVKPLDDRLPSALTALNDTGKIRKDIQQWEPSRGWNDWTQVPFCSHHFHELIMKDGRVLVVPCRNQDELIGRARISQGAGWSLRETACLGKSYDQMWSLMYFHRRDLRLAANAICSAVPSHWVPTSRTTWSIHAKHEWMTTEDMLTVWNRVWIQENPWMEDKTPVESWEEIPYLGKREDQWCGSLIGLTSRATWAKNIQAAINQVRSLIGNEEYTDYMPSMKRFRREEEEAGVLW", "experiment": "Dengue-2 NS5 methyltransferase inhibitors, primary screen, biochemical, confirmation dose response (AID 588689)", "format": "functional"}, "[11]": {"target": "T7, Hepatocyte nuclear factor 4-alpha (Homo sapiens, UniProt P41235)", "T7 sequence (P41235 whole entry)": "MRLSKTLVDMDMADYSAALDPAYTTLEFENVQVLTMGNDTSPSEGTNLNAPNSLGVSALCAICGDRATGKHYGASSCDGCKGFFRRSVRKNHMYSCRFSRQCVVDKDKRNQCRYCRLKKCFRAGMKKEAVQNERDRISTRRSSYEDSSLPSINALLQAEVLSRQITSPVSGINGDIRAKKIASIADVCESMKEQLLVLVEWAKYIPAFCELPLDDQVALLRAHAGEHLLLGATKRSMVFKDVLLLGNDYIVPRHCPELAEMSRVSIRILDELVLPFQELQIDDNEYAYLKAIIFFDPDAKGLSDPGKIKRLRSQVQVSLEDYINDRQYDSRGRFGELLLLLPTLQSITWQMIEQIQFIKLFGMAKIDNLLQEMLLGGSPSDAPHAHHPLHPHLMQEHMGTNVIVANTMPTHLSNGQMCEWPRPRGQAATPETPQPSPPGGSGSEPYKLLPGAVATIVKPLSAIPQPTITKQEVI", "format": "functional, cell-based"}, "[12]": {"experiment": "cytotoxicity toward NIH3T3 fibroblasts, dose response, counter-screen, cell-based, ATP luminescence, mouse fibroblasts (AID 2010);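 also: cells exposed to compound for about 90 hours before reading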", "format": "functional"}, "cells [13]": {"experiment": "cells", "format": "functional, cell-based"}, "cells [14]": {"experiment": "cells", "format": "functional, cell-based", "remark": "listed apart in the source"}, "[15]": {"experiment": "inhibitors of intracellular T. cruzi replication, confirmation, NIH3T3 host cells, beta-gal luminescence (AID 2044);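 also: luminescent beta-galactosidase reporter signal from transgenic T. cruzi replicating inside host cells; inhibitors lower the luminescence signal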", "format": "functional, cell-based"}, "H9c2": {"system": "H9c2", "experiment": "cells", "format": "functional, cell-based", "details": "Rattus norvegicus, H9c2, Myocardium"}}, "note": "The source made the active and inactive calls.", "data": [{"smiles": "CCCCN(CC)CCCN=C(S)Nc1ccc2nc(N3CCN(CC)CC3)cc(C)c2c1", "values": [{"measurement": "AC50", "setting": "[1]", "value": "25.7 µM (active)"}]}, {"smiles": "O=C(C1=C(O)C(=O)N(CCCO)C1c1ccc(Br)cc1)c1ccc(Br)cc1", "note": "(centres undefined)", "values": [{"measurement": "IC50", "setting": "[2]", "value": "73.4 µM (inactive)"}, {"measurement": "IC50", "setting": "[3]", "value": "58.9 µM (inactive)"}, {"measurement": "IC50", "setting": "[4]", "value": "36.2 µM (inactive)"}]}, {"smiles": "CCOC(=O)c1c(NC(=O)c2ccc(S(=O)(=O)N3CCOCC3)cc2)sc2c1CCN(C(C)C)C2", "values": [{"measurement": "AC50", "setting": "[1]", "value": "8.89 µM (active)"}]}, {"smiles": "CCN(CC)Cc1cc2[nH]c3c4ccc(Cl)cc4ncc3c2cc1OC", "values": [{"measurement": "AC50", "setting": "[5]", "value": "3.1 µM (active)"}, {"measurement": "AC50", "setting": "[1]", "value": "14.6 µM (active)"}, {"measurement": "IC50", "setting": "[6]", "value": "> 20 µM (inactive)"}]}, {"smiles": "OCCN1CCN(C(=S)c2ccc(Cl)c(Cl)c2)CC1", "values": [{"measurement": "IC50", "setting": "[2]", "value": "0.339 µM (active)"}, {"measurement": "IC50", "setting": "[3]", "value": "1.99 µM (active)"}, {"measurement": "IC50", "setting": "[7]", "value": "18.4 µM (active)"}, {"measurement": "AC50", "setting": "[8]", "value": "132 µM (active)"}, {"measurement": "IC50", "setting": "[9]", "value": "10.8 µM (active)"}, {"measurement": "IC50", "setting": "[4]", "value": "8.95 µM (active)"}, {"measurement": "IC50", "setting": "[10]", "value": "> 80 µM (inactive)"}]}, {"smiles": "O=C1NC(=S)NC(=O)C12C(c1ccccc1)NC(=S)NC2c1ccccc1", "note": "(centres undefined)", "values": [{"measurement": "IC50", "setting": "Genome polyprotein", "value": "69.4 µM (active)"}, {"measurement": "IC50", "setting": "[11]", "value": "5.81 µM (active)"}]}, {"smiles": "CC(C)[C@H](NC(=O)c1ccccc1Cl)C(=O)Nc1nc(-c2ccccn2)cs1", "values": [{"measurement": "EC50", "setting": "[12]", "value": "11.7 µM (active)"}, {"measurement": "EC50", "setting": "cells [13]", "value": "24 µM (active)"}, {"measurement": "EC50", "setting": "cells [14]", "value": "> 350 µM (not active)"}, {"measurement": "EC50", "setting": "[15]", "value": "2.23 µM (active)"}, {"measurement": "AC50", "setting": "[8]", "value": "73.8 µM (active)"}, {"measurement": "IC50", "setting": "H9c2", "value": "8.83 µM (active)"}]}, {"smiles": "COc1ccc(C(C(=O)NC2CCCCC2)n2c(=O)c(-c3ccco3)nc3ccccc32)cc1", "note": "(centres undefined)", "values": [{"measurement": "IC50", "setting": "[11]", "value": "1.75 µM (active)"}]}]}
